From patent US20180194762A1 (Pharmacyclics LLC, priority 2017, published 2018)
Read-outs that look alike come from different tables or passages of the source.

Tests used:
Type in all cases: biochemical
Btk = molecular target: T1, Btk (Homo sapiens, UniProt Q06187); experiment: Btk in vitro inhibitory activity (one of Method A TR-FRET, Method B electrophoretic mobility shift, Method C radiometric filter binding)
T1 construct: purified from insect cells as a full-length construct containing a N-terminal 6X-His tag; His6 (N); made in house; host or cells: insect cells (Method C)
How it was run: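 Method A: TR-FRET with 0.5 nM Btk at [ATP]=Km, EDTA-quenched, 665/615 nm ratio; Ki(app) converted to IC50. Method B: 1 nM full-length His6 human BTK, 1 μM FAM peptide, pH 7.5, mobility-shift product/sum ratio, 12-point 4-parameter fit. Method C: radiometric filter binding, 8 nM His-tagged BTK, 0.2 mg/mL poly-Glu-Tyr.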

TEC = molecular target: T2, TEC (Homo sapiens, UniProt P42680); experiment: Inhibition of a panel of kinases (in vitro HotSpot kinase assay, 33P-ATP, 1 μM ATP); conditions: for IC50: HotSpot kinase assay, 1 μM ATP; for TEC/Btk: ratio of TEC IC50 to Btk IC50 (selectivity)
T2 sequence (P42680 1-631): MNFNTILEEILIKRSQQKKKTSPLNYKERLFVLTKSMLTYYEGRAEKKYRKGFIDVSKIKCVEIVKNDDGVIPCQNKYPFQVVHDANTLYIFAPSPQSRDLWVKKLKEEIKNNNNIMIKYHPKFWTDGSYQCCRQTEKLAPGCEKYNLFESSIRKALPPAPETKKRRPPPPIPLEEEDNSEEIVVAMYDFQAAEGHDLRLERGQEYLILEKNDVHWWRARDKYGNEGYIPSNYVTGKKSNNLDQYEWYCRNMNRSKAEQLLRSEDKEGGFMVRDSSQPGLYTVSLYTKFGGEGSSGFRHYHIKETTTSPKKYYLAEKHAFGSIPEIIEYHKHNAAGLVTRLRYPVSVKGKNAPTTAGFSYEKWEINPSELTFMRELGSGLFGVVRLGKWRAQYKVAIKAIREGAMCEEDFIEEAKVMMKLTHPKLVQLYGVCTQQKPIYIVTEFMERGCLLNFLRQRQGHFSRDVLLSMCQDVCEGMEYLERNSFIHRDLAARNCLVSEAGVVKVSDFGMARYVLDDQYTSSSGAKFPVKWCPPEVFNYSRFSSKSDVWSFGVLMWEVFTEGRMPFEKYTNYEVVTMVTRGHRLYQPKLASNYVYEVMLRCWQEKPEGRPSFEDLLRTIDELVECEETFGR
How it was run: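 Degree of kinase inhibition is determined in vitro using isolated enzymes, a matched substrate and radiolabelled ATP (1 μM).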

panel of kinases = molecular target: T3, panel of kinases (Homo sapiens, UniProt P51813); experiment: Inhibition of a panel of kinases (in vitro HotSpot kinase assay, 33P-ATP, 1 μM ATP), other kinases; conditions: BMX wild-type, read-out: BMX-WT IC50
T3 sequence (P51813 1-675): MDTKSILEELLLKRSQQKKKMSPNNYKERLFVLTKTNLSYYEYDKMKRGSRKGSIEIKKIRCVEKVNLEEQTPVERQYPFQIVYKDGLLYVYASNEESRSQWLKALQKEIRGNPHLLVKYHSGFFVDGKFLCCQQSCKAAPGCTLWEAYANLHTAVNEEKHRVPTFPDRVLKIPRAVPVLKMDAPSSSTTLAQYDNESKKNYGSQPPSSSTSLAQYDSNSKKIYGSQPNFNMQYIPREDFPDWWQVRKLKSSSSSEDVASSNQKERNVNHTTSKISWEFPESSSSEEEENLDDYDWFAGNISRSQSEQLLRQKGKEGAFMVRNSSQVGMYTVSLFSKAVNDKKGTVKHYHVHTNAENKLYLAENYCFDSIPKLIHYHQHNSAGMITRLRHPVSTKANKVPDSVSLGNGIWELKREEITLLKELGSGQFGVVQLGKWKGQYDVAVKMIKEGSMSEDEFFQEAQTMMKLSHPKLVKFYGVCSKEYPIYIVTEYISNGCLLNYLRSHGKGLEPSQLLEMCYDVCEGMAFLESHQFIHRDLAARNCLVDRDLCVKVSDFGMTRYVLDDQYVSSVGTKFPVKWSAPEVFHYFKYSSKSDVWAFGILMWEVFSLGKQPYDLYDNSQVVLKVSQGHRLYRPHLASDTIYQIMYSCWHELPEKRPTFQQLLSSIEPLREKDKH
Description: Example 63: Inhibition of a Panel of Kinases The degree of inhibition of a panel of kinases is determined using the in vitro HotSpot kinase assay (purified enzymes, ^33P-ATP, an appropriate substrate and 1 μM ATP).

[1] = wild-type Btk, read-out: Btk-WT IC50

T1 sequence (Q06187 whole entry): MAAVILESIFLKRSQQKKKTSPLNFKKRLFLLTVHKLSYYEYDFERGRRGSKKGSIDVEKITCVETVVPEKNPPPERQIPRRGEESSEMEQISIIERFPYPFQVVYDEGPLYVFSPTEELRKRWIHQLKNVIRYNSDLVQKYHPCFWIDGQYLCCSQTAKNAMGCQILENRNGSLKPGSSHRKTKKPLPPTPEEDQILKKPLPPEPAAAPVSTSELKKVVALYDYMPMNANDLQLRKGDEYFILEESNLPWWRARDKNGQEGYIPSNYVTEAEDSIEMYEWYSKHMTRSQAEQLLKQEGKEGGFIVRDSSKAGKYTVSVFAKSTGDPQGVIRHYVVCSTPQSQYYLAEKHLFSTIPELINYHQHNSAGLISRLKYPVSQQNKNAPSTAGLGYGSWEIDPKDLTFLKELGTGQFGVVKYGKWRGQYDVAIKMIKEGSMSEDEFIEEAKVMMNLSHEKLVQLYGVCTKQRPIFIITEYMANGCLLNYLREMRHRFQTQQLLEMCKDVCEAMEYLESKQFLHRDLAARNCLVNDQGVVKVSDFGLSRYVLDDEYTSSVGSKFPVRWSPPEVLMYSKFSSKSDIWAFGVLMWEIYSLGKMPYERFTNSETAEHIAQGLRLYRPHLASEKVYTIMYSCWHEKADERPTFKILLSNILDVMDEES

SMILES	IC50 (Btk; [1])	IC50 (TEC)	TEC/Btk (TEC)	IC50 (panel of kinases)	IC50 (Btk; method is one of A, B or C, not stated which, read-out: IC50 values against Btk)
Cc1ccc(C(=O)NCc2ccc(-c3ccnc4[nH]nc(N[C@@H]5CCNC5)c34)cc2F)cc1 [Compound 32, (R)—N-(2-fluoro-4-(3-(pyrrolidin-3-ylamino)-1H-pyrazolo[3,4-b]pyridin-4-yl)benzyl)-4-methylbenzamide]	328 nM	5440 nM	17	1410 nM	–
CC(C)(C)n1cc(C(=O)NCc2ccc(-c3ccnc4[nH]nc(N[C@@H]5CCNC5)c34)cc2F)cn1 [Example 76, 1-tert-butyl-N-{[2-fluoro-4-(3-{[(3R)-pyrrolidin-3-yl]amino}-1H-pyrazolo[3,4-b]pyridin-4-yl)phenyl]methyl}-1H-pyrazole-4-carboxamide]	51.1 nM	8720 nM	171	8360 nM	–
C[C@H]1CC[C@@H](Nc2n[nH]c3nccc(-c4ccc(CNC(=O)c5nc(C(C)(C)C)no5)c(F)c4)c23)CN1 [Example 147, 3-tert-butyl-N-{[2-fluoro-4-(3-{[(3R,6S)-6-methylpiperidin-3-yl]amino}-1H-pyrazolo[3,4-b]pyridin-4-yl)phenyl]methyl}-1,2,4-oxadiazole-5-carboxamide]	84.4 nM	> 10000 nM	>100	5530 nM	–
C[C@@H](NC(=O)c1cc(C(C)(C)O)on1)c1ccc(-c2ccnc3[nH]nc(NC4CCN(S(C)(=O)=O)CC4)c23)cc1 [Example 203, 5-(2-hydroxypropan-2-yl)-N-{(1R)-1-[4-(3-{[1-(methanesulfonyl)piperidin-4-yl]amino}-1H-pyrazolo[3,4-b]pyridin-4-yl)phenyl]ethyl}-1,2-oxazole-3-carboxamide]	> 1000 nM	> 10000 nM	>10000	> 10000 nM	–
CC(C)(C)c1ccc(C(=O)Nc2ccc(-c3ccnc4[nH]nc(N[C@@H]5CCNC5)c34)cc2F)cc1 [Compound 42, 4-tert-butyl-N-[2-fluoro-4-(3-{[(3R)-pyrrolidin-3-yl]amino}-1H-pyrazolo[3,4-b]pyridin-4-yl)phenyl]benzamide]	> 10000 nM	> 10000 nM	–	> 10000 nM	–
CC(=O)N[C@@H]1CCN(c2n[nH]c3nccc(-c4ccc(CNC(=O)c5nc6c(o5)CCCC6)c(F)c4)c23)C1 [Example 198, N-[(4-{3-[(3R)-3-acetamidopyrrolidin-1-yl]-1H-pyrazolo[3,4-b]pyridin-4-yl}-2-fluorophenyl)methyl]-4,5,6,7-tetrahydro-1,3-benzoxazole-2-carboxamide]	137 nM	–	–	3180 nM	–
C[C@@H](NC(=O)c1noc(C(C)(C)C)n1)c1ccc(-c2ccnc3[nH]nc(C4=CCCN(C(=O)N(C)C)C4)c23)cc1 [Example 254, 5-[4-(4-{(1R)-1-[(5-tert-butyl-1,2,4-oxadiazole-3-carbonyl)amino]ethyl}phenyl)-1H-pyrazolo[3,4-b]pyridin-3-yl]-N,N-dimethyl-3,6-dihydropyridine-1(2H)-carboxamide]	40.8 nM	–	–	9080 nM	–
O=C(NCc1ccc(-c2ccnc3[nH]nc(N[C@@H]4CCNC4)c23)cc1F)c1ccc2scnc2c1 [Example 352, (R)-N-[(2-fluoro-4-{3-[(pyrrolidin-3-yl)amino]-1H-pyrazolo[3,4-b]pyridin-4-yl}phenyl)methyl]-1,3-benzothiazole-5-carboxamide]	108 nM	–	–	1530 nM	–

These reach a lower IC50 (Btk; [1]). Values come first.

IC50 (Btk; [1])	IC50 (TEC)	TEC/Btk (TEC)	IC50 (panel of kinases)	IC50 (Btk; method is one of A, B or C, not stated which, read-out: IC50 values against Btk)	SMILES
29.2 nM	> 10000 nM	>100	> 10000 nM	–	C[C@H]1NCCC[C@H]1Nc1n[nH]c2nccc(-c3ccc(CNC(=O)c4noc(C(C)(C)C)n4)c(F)c3)c12 [Example 55]
0.0353 nM	30 nM	–	33.2 nM	–	C=CC(=O)N[C@@H]1CCN(c2n[nH]c3nccc(-c4ccc(CNC(=O)c5nc(C(C)(C)C)no5)c(F)c4)c23)C1 [Example 331, 3-tert-butyl-N-{[2-fluoro-4-(3-{(3R)-3-[(prop-2-enoyl)amino]pyrrolidin-1-yl}-1H-pyrazolo[3,4-b]pyridin-4-yl)phenyl]methyl}-1,2,4-oxadiazole-5-carboxamide]
1.96 nM	1600 nM	816	3430 nM	–	C[C@H]1CC[C@@H](Nc2n[nH]c3nccc(-c4ccc(CNC(=O)c5nc(C(C)(C)C)no5)c(F)c4)c23)CN1C(=O)n1ccnc1 [Example 196, 3-tert-butyl-N-{[2-fluoro-4-(3-{[(3R,6S)-1-(1H-imidazole-1-carbonyl)-6-methylpiperidin-3-yl]amino}-1H-pyrazolo[3,4-b]pyridin-4-yl)phenyl]methyl}-1,2,4-oxadiazole-5-carboxamide]
4.28 nM	1470 nM	343	1400 nM	–	CC(=O)N[C@@H]1CCN(c2n[nH]c3nccc(-c4ccc(CNC(=O)c5nc(C(C)C)no5)c(F)c4)c23)C1 [Example 200, N-[(4-{3-[(3R)-3-acetamidopyrrolidin-1-yl]-1H-pyrazolo[3,4-b]pyridin-4-yl}-2-fluorophenyl)methyl]-3-(propan-2-yl)-1,2,4-oxadiazole-5-carboxamide]
37.3 nM	922 nM	25	444 nM	–	C=CC(=O)N1CC[C@@H](Nc2n[nH]c3nccc(-c4cccc(NC(=O)c5noc(C(C)(C)C)n5)c4CO)c23)C1 [Example 160, 5-tert-butyl-N-[2-(hydroxymethyl)-3-(3-{[(3R)-1-(prop-2-enoyl)pyrrolidin-3-yl]amino}-1H-pyrazolo[3,4-b]pyridin-4-yl)phenyl]-1,2,4-oxadiazole-3-carboxamide]
3.41 nM	2680 nM	–	496 nM	< 10 nM	C=CC(=O)N[C@H]1CC[C@H](Nc2n[nH]c3nccc(-c4ccc(CNC(=O)c5noc(C(C)(C)C)n5)c(F)c4)c23)CC1 [Example 152, 5-tert-butyl-N-{[2-fluoro-4-(3-{[(1r,4r)-4-(prop-2-enamido)cyclohexyl]amino}-1H-pyrazolo[3,4-b]pyridin-4-yl)phenyl]methyl}-1,2,4-oxadiazole-3-carboxamide]
6.45 nM	–	–	6810 nM	–	C[C@@H](NC(=O)c1nc(C(C)(C)C)no1)c1ccc(-c2ccnc3[nH]nc(NC4CCOC4)c23)cc1 (stereo partly drawn) [Example 217, 3-tert-butyl-N-[(1R)-1-(4-{3-[(oxolan-3-yl)amino]-1H-pyrazolo[3,4-b]pyridin-4-yl}phenyl)ethyl]-1,2,4-oxadiazole-5-carboxamide]
8.74 nM	–	–	5230 nM	–	C=CC(=O)N[C@@H]1CCCC[C@H]1Nc1n[nH]c2nccc(-c3ccc(CNC(=O)c4cc(C(C)(C)C)on4)c(F)c3)c12 [Example 313, 5-tert-butyl-N-({2-fluoro-4-[3-({(1R,2R)-2-[(prop-2-enoyl)amino]cyclohexyl}amino)-1H-pyrazolo[3,4-b]pyridin-4-yl]phenyl}methyl)-1,2-oxazole-3-carboxamide]
19.1 nM	–	–	6600 nM	–	C[C@@H](NC(=O)c1nc(C(C)(C)C)no1)c1ccc(-c2ccnc3[nH]nc(NC4CCOCC4)c23)cc1 [Example 218, 3-tert-butyl-N-[(1R)-1-(4-{3-[(oxan-4-yl)amino]-1H-pyrazolo[3,4-b]pyridin-4-yl}phenyl)ethyl]-1,2,4-oxadiazole-5-carboxamide]
